Assays:
[1] = molecular target: T1, Glutamate carboxypeptidase 2 (Homo sapiens, UniProt Q04609);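 as to IC50: inhibition of binding of tritium-labelled N-acetyl-L-aspartyl-L-glutamate to the enzyme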
Description: Inhibition of N-acetyl-L-aspartyl-[3H]L-glutamate binding to glutamate carboxypeptidase II (GCP II)

[2] = Pharmacokinetic constant Area under curve(AUC) was determined after orally administered dose of 10 mgkg in rats; format: ADME, organism-based; set-up: dose 10 mgkg, route oral; conditions: rat, in vivo, po, 10 mg/kg
[3] = Pharmacokinetic constant Area under curve(AUC) was determined after intravenously administered dose of 10 mgkg in rats; format: ADME, organism-based; set-up: dose 10 mgkg, route intravenous; conditions: rat, in vivo, iv, 10 mg/kg
[4] = Pharmacokinetic constant(Tmax) after orally administered dose of 10 mgkg in rats; format: ADME, organism-based; set-up: dose 10 mgkg, route oral; conditions: rat, in vivo, po, 10 mg/kg
[5] = Half life after intravenously administered dose of 10 mgkg in rats; format: ADME, organism-based; set-up: dose 10 mgkg, route intravenous; conditions: rat, in vivo, iv, 10 mg/kg
[6] = Half life after orally administered dose of 10 mgkg in rats; format: ADME, organism-based; set-up: dose 10 mgkg, route oral; conditions: rat, in vivo, po, 10 mg/kg
[7] = Plasma concentration was determined after orally administered dose of 10 mgkg in rats; format: ADME, organism-based; set-up: dose 10 mgkg, route oral; conditions: rat, po, 10 mg/kg
[8] = molecular target: T1, Glutamate carboxypeptidase 2; remark: listed apart in the source
Description: In vitro inhibitory activity against glutamate carboxypeptidase II (GCP II) using N-acetyl-L-aspartyl-[3H]L-glutamate as a substrate

[9] = Bioavailability after orally administered dose of 10 mgkg in rats; format: ADME, organism-based; conditions: rat, in vivo, po

T1 sequence (Q04609 whole entry): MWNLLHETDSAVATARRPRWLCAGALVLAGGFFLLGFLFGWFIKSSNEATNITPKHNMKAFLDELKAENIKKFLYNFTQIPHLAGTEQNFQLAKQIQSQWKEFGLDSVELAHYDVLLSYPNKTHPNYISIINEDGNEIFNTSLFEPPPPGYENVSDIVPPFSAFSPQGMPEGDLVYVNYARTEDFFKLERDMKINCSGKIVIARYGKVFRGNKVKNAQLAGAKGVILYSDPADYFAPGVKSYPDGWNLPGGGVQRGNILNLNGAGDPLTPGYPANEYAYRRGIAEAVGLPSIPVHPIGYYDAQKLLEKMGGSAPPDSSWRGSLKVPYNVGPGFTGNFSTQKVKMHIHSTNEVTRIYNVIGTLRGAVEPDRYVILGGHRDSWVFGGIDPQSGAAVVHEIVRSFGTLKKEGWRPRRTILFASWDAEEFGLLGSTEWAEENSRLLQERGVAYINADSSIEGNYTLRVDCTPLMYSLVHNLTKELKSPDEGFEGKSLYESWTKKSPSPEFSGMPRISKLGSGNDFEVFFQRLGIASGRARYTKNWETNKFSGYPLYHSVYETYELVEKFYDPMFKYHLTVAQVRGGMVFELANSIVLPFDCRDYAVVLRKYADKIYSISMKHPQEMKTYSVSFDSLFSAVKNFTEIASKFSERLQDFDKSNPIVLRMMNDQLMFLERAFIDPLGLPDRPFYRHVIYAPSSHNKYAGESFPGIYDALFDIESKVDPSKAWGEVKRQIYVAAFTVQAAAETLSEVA

O=C(O)CCC(CCP(=O)(O)O)C(=O)O (stereo not given)
IC50 [1]: 1200 nM

O=C(O)CCC(CCCSSCCCC(CCC(=O)O)C(=O)O)C(=O)O (stereo not given)
AUC [2]: 53 ng·h/mL
AUC [3]: 190 ng·h/mL
Tmax [4]: 54 min
half-life [5]: 22.2 min
half-life [6]: 116 min
Cmax [7]: 44 ng/mL
IC50 [1]: 3100 nM

O=C(O)CCC(C(=O)O)P(=O)(O)O (stereo not given)
IC50 [1]: 1400 nM

O=C(O)CCC(CS)C(=O)O (stereo not given)
IC50 [1]: 6000 nM

O=C(O)CCC(S)C(=O)O (stereo not given)
IC50 [1]: 2600 nM

O=C(O)CCC(CCCCCS)C(=O)O (stereo not given)
IC50 [1]: 2600 nM

O=C(O)CCC(CCCSC(c1ccccc1)(c1ccccc1)c1ccccc1)C(=O)O (stereo not given)
IC50 [1]: > 10000 nM

O=C(O)CCCCS
IC50 [1]: 1400 nM

O=C(O)C(CS)Cc1ccccc1 (stereo not given)
Ki [8]: 11 nM

O=C(O)CCC(CCS)C(=O)O (stereo not given)
IC50 [1]: 580 nM

CSCCCC(CCC(=O)O)C(=O)O (stereo not given)
IC50 [1]: 6500 nM

O=C(O)CCC(CCCS)C(=O)O (stereo not given)
AUC [2]: 1820 ng·h/mL
bioavailability [9]: 71%
AUC [3]: 2550 ng·h/mL
Tmax [4]: 9.6 min
half-life [5]: 63 min
half-life [6]: 70.8 min
Cmax [7]: 2230 ng/mL

O=C(O)CCC(CCCCS)C(=O)O (stereo not given)
IC50 [1]: 1100 nM

— ChEMBL document CHEMBL1145039, “Synthesis and biological evaluation of thiol-based inhibitors of glutamate carboxypeptidase II: discovery of an orally active GCP II inhibitor” (J Med Chem, 2003)
